The text below walks through data of the OPERA property sets (Mansouri et al. 2018).

In general, logP refers to a log measure of how a compound divides between an organic and an aqueous phase. A high value points to a more lipophilic compound. The compound `CC(C)(C)C(=O)Nc1ccc2nn(C3CCCC3)nc2c1` showed a logP of 3.4. With `O=C(Nc1ccc2nn(C3CCCC3)nc2c1)c1ccc(Cl)cc1` the figure was 4.11. The compound `Nc1ccc(S(=O)(=O)Nc2ccc3nn(C4CCCC4)nc3c2)cc1` returned a logP of 2.48. Regarding `O=C(Nc1ccc2nn(C3CCCC3)nc2c1)c1ccc(C(F)(F)F)cc1`, the logP stood at 4.95. For `O=[N+]([O-])c1ccc(S(=O)(=O)Nc2ccc3nn(C4CCCC4)nc3c2)cc1` the value was 3.82; for `O=C(Nc1ccc2nn(C3CCCC3)nc2c1)C(Cl)(Cl)Cl`, 4.12; for `CS(=O)(=O)Nc1ccc2nn(C3CCCC3)nc2c1`, 2.44. The compound `CCOC(=O)Nc1ccc2nn(C3CCCC3)nc2c1` registered a logP of 3.43. With `COc1cc(C(=O)Nc2ccc3nn(C4CCCC4)nc3c2)cc(OC)c1OC` the figure was 3.87. As to `Cc1ccc(S(=O)(=O)Nc2ccc3nn(C4CCCC4)nc3c2)cc1`, the logP is 3.91. With `O=C(Nc1ccc2nn(C3CCCC3)nc2c1)C(Cl)Cl` the figure was 3.4; with `O=C(Nc1ccc2nn(C3CCCC3)nc2c1)c1ccc([N+](=O)[O-])cc1`, 3.75; with `O=C(Nc1ccc2nn(C3CCCC3)nc2c1)c1ccc(Cl)c(Cl)c1`, 5.32.

Take `CC(C)COC(=O)Nc1ccc2nn(C3CCCC3)nc2c1`: the logP amounted to 4.28. For `O=C(CCl)Nc1ccc2nn(C3CCCC3)nc2c1` the value was 2.78.

Consider `CC(=O)Nc1ccc2nn(C3CCCC3)nc2c1`, for which the logP stood at 2.45. `O=C(Nc1ccc2nn(C3CCCC3)nc2c1)c1ccccc1`: the logP turned out to be 3.85.
